Measured values from US8835646B2, “Organic compounds” (Novartis AG, priority 2005, dated 2014).

Legend:
[1] = target: T1, human aromatase (Homo sapiens, UniProt P11511); assay: human aromatase assay (Supersomes, DBF substrate, fluorescence); format: biochemical; details: 10000 nM
T1 construct: purchased Gentest (Woburn, Mass.)
T1 sequence (P11511 1-503): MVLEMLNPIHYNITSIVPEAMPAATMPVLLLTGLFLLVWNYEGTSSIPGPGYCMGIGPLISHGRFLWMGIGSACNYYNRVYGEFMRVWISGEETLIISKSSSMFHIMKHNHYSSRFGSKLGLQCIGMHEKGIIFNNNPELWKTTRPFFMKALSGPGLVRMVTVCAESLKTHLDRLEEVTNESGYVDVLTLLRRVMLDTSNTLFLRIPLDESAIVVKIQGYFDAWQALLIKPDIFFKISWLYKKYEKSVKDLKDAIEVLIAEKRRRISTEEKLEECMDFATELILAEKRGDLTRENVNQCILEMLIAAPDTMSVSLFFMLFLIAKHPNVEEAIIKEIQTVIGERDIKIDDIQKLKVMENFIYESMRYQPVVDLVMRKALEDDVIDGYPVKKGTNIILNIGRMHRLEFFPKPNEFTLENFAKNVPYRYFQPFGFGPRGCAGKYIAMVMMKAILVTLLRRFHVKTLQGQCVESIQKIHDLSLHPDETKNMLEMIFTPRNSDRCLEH
From the text: (§1) Human adrenocortical carcinoma NCl-H295R cell line is obtained from American Type Culture Collection (Manassas, Va.). Insulin/transferrin/selenium (ITS)-A supplement (100×), DMEM/F-12, antibiotic/antimycotic (100×), and fetal calf serum (FCS) are purchased from Gibco (Grand Island, N.Y.). Anti-mouse PVT scintillation proximity assay (SPA) beads and NBS 96-well plates are obtained from Amersham (Piscataway, N.J.) and Corning (Acton, Mass.), respectively. Solid black 96-well flat bottom plates are purchased from Costar (Corning, N.Y.). Aldosterone and angiotensin (Ang II) are purchased from Sigma (St. Louis, Mo.). D-[1,2,6,7-^3H(N)]aldosterone was acquired from PerkinElmer (Boston, Mass.). Nu-serum was a product of BD Biosciences (Franklin Lakes, N.J.). The NADPH regenerating system, dibenzylfluorescein (DBF), and human aromatase Supersomes® are obtained from Gentest (Woburn, Mass.).
To measure aromatase activity, the human aromatase assay is performed in 96-well flat bottom plates according to a published protocol (Stresser et al, 2000) with minor modifications. Briefly, 10 μl of an NADPH regenerating system containing 2.6 mM NADP^+, 6.6 mM glucose 6-phosphate, 6.6 mM MgCl2, and 0.8 U/ml glucose-6-phosphate dehydrogenase in 50 mM potassium phosphate, pH 7.4, is pre-incubated with the test compound at a desired concentration at 30° C. for 10 min in a total volume of 100 μl. Afterwards, 4 pmol of human aromatase, 20 μg of control microsomal protein, and 4 μM DBF in 100 μl of 50 mM potassium phosphate, pH 7.4, is added to each well and incubated at 30° C. for 90 min. The reaction is terminated by the addition of 75 μl of 2 N NaOH to each well. After 2 hr, the product, fluorescein, is measured by a fluorimeter using excitation and emission wavelengths of 485 and 538 nm, respectively.
(§2) Full concentration-response curves of the test compound are performed at least 3 times. The IC50 values are derived using a non-linear least squares curve-fitting program from Microsoft XLfit.

[2] = target: T2, aldosterone synthase (Homo sapiens, UniProt P19099); assay: cellular aldosterone production in NCI-H295R cells stimulated with Ang II (RIA/SPA); format: cell-based; details: human adrenocortical carcinoma NCI-H295R cells, 1 μM Ang II, 24 hr
T2 construct: host or cells: NCI-H295R
T2 sequence (P19099 25-503): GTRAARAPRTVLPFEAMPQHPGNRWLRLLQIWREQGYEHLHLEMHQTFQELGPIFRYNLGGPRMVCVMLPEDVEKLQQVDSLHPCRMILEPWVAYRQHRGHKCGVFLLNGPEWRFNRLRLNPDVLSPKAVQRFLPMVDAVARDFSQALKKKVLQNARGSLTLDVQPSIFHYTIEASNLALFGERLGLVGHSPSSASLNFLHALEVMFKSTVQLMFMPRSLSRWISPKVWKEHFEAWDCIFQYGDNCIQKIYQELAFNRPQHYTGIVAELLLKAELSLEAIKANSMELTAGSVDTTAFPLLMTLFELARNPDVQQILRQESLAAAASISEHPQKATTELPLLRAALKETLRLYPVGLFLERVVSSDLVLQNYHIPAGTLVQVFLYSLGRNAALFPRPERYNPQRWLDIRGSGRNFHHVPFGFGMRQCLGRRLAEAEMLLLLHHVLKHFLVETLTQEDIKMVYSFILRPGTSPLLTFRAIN
From the text: as §1
For in vitro measurement of aldosterone activity, human adrenocortical carcinoma NCI-H295R cells are seeded in NBS 96-well plates at a density of 25,000 cells/well in 100 μl of a growth medium containing DMEM/F12 supplemented with 10% FCS, 2.5% Nu-serum, 1 μg ITS/ml, and 1× antibiotic/antimycotic. The medium is changed after culturing for 3 days at 37° C. under an atmosphere of 5% CO2/95% air. On the following day, cells are rinsed with 100 μl of DMEM/F12 and incubated with 100 μl of treatment medium containing 1 μM Ang II and a compound at different concentrations in quadruplicate wells at 37° C. for 24 hr. At the end of incubation, 50 μl of medium is withdrawn from each well for measurement of aldosterone production by an RIA using mouse anti-aldosterone monoclonal antibodies.
Measurement of aldosterone activity can also be performed using a 96-well plate format. Each test sample is incubated with 0.02 μCi of D-[1,2,6,7-^3H(N)]aldosterone and 0.3 μg of anti-aldosterone antibody in phosphate-buffered saline (PBS) containing 0.1% Triton X-100, 0.1% bovine serum albumin, and 12% glycerol in a total volume of 200 μl at room temperature for 1 hr. Anti-mouse PVT SPA beads (50 μl) are then added to each well and incubated overnight at room temperature prior to counting in a Microbeta plate counter. The amount of aldosterone in each sample is calculated by comparing with a standard curve generated using known quantities of the hormone.
as §2

SMILES | inhibition at 10 µM [1] [%] | IC50 [2] [nM]
C=CCC1(c2ccc(C#N)cc2Br)CCCCc2cncn21 (stereo not drawn) [4-(5-Allyl-6,7,8,9-tetrahydro-5H-imidazo[1,5-a]azepin-5-yl)-3-bromobenzonitrile] | 97 | 32
COc1cc(C2CCc3cncn32)ccc1C#N (stereo not drawn) [4-(6,7-Dihydro-5H-pyrrolo[1,2-c]imidazol-5-yl)-2-methoxybenzonitrile] | 97 | 5
Cc1cc(C2CCc3cncn32)ccc1C#N (stereo not drawn) [4-(6,7-Dihydro-5H-pyrrolo[1,2-c]imidazol-5-yl)-2-methylbenzonitrile] | 95 | 3
C=Cc1cc(C2CCc3cncn32)ccc1C#N (stereo not drawn) [4-(6,7-Dihydro-5H-pyrrolo[1,2-c]imidazol-5-yl)-2-vinylbenzonitrile] | 100 | 8
COc1cc(C#N)ccc1C1CCc2cncn21 (stereo not drawn) [4-(6,7-Dihydro-5H-pyrrolo[1,2-c]imidazol-5-yl)-3-methoxybenzonitrile] | 100 | 18
C=Cc1cc(C#N)ccc1C1CCc2cncn21 (stereo not drawn) [4-(6,7-Dihydro-5H-pyrrolo[1,2-c]imidazol-5-yl)-3-vinylbenzonitrile] | 95 | 31
CC1CCCC(c2ccc(C#N)cc2-c2ccc(F)cc2)n2cncc21 (stereo not drawn) [4′-Fluoro-6-(9-methyl-6,7,8,9-tetrahydro-5H-imidazo[1,5-a]azepin-5-yl)biphenyl-3-carbonitrile] | 91 | 2
Fc1ccc(C2CCCCc3cncn32)c(Br)c1 (stereo not drawn) [5-(2-Bromo-4-fluorophenyl)-6,7,8,9-tetrahydro-5H-imidazo[1,5-a]azepine] | 92 | 65
COC(=O)C1(c2ccc(C#N)cc2Cl)CCc2cncn21 (stereo not drawn) [5-(2-Chloro-4-cyanophenyl)-6,7-dihydro-5H-pyrrolo[1,2-c]imidazole-5-carboxylic acid methyl ester] | 96 | 45
COc1ccc(C2CCc3cncn32)cc1F (stereo not drawn) [5-(3-fluoro-4-methoxyphenyl)-6,7-dihydro-5H-pyrrolo[1,2-c]imidazole] | 100 | 159
COC(=O)C1(c2cc(OC)c(C#N)cc2OC)CCc2cncn21 (stereo not drawn) [5-(4-Cyano-2,5-dimethoxyphenyl)-6,7-dihydro-5H-pyrrolo[1,2-c]imidazole-5-carboxylic acid methyl ester] | 98 | 113
COc1cc(C#N)ccc1C1(C(=O)OCCOC(C)C)CCc2cncn21 (stereo not drawn) [5-(4-Cyano-2-methoxyphenyl)-6,7-dihydro-5H-pyrrolo[1,2-c]imidazole-5-carboxylic acid 2-isopropoxyethyl ester] | 96 | 5
COc1cc(C#N)ccc1C1(C(=O)N(C)Cc2ccc(F)cc2)CCc2cncn21 (stereo not drawn) [5-(4-Cyano-2-methoxyphenyl)-6,7-dihydro-5H-pyrrolo[1,2-c]imidazole-5-carboxylic acid (4-fluorobenzyl)methylamide] | 85 | 57
CCCCOC(=O)C1(c2ccc(C#N)cc2OC)CCc2cncn21 (stereo not drawn) [5-(4-Cyano-2-methoxyphenyl)-6,7-dihydro-5H-pyrrolo[1,2-c]imidazole-5-carboxylic acid butyl ester] | 100 | 6
COC(=O)C1(c2ccc(C#N)cc2OC(F)(F)F)CCc2cncn21 (stereo not drawn) [5-(4-Cyano-2-trifluoromethoxyphenyl)-6,7-dihydro-5H-pyrrolo[1,2-c]imidazole-5-carboxylic acid methyl ester] | 99 | 2
Fc1ccc(C2CCCc3cncn32)c(-c2ccsc2)c1 (stereo not drawn) [5-(4-Fluoro-2-thiophen-3-yl-phenyl)-5,6,7,8-tetrahydroimidazo[1,5-a]pyridine] | 88 | 93
Fc1ccc(C2CCCc3cncn32)c(-c2ccccc2)c1 (stereo not drawn) [5-(5-Fluorobiphenyl-2-yl)-5,6,7,8-tetrahydroimidazo[1,5-a]pyridine] | 98 | 57
N#Cc1ccc(C2CC3(CC3)c3cncn32)c(F)c1 (stereo not drawn) [5′-[2-fluoro-4-cyano-phenyl]-5′,6′-dihydrospiro[cyclopropane-1,7′-pyrrolo[1,2-c]imidazole]] | 99 | 11
